# Source: ChEMBL document CHEMBL6182889, “Discovery of the first-in-class DOT1L PROTAC degrader” (Eur J Med Chem, 2025)
# Calls of active or inactive are those of the source. The calls are words filed in the database; no cut-off is given here.
# What was measured:
# [1] = biological target: T1, von Hippel-Lindau disease tumor suppressor/Histone-lysine N-methyltransferase, H3 lysine-79 specific (Homo sapiens, UniProt Q8TEK3+P40337); assay: PROTAC activity at VHL/DOTIL in mixed-lineage leukemia rearranged (MLL-r) human THP-1 cells assessed as induction of DOT1L degradation by measuring fold change in DOTIL protein level at 3 uM incubated for 24 hrs by western blot analysis relative to control; format: cell-based
# T1 sequence (P40337 whole entry, looked up): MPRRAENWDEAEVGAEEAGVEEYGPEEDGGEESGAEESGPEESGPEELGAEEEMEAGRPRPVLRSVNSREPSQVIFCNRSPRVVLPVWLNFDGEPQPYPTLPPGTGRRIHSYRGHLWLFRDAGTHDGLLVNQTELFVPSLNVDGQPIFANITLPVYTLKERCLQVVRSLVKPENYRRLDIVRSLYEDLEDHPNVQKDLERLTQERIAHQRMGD
# T1 sequence (Q8TEK3 whole entry, looked up): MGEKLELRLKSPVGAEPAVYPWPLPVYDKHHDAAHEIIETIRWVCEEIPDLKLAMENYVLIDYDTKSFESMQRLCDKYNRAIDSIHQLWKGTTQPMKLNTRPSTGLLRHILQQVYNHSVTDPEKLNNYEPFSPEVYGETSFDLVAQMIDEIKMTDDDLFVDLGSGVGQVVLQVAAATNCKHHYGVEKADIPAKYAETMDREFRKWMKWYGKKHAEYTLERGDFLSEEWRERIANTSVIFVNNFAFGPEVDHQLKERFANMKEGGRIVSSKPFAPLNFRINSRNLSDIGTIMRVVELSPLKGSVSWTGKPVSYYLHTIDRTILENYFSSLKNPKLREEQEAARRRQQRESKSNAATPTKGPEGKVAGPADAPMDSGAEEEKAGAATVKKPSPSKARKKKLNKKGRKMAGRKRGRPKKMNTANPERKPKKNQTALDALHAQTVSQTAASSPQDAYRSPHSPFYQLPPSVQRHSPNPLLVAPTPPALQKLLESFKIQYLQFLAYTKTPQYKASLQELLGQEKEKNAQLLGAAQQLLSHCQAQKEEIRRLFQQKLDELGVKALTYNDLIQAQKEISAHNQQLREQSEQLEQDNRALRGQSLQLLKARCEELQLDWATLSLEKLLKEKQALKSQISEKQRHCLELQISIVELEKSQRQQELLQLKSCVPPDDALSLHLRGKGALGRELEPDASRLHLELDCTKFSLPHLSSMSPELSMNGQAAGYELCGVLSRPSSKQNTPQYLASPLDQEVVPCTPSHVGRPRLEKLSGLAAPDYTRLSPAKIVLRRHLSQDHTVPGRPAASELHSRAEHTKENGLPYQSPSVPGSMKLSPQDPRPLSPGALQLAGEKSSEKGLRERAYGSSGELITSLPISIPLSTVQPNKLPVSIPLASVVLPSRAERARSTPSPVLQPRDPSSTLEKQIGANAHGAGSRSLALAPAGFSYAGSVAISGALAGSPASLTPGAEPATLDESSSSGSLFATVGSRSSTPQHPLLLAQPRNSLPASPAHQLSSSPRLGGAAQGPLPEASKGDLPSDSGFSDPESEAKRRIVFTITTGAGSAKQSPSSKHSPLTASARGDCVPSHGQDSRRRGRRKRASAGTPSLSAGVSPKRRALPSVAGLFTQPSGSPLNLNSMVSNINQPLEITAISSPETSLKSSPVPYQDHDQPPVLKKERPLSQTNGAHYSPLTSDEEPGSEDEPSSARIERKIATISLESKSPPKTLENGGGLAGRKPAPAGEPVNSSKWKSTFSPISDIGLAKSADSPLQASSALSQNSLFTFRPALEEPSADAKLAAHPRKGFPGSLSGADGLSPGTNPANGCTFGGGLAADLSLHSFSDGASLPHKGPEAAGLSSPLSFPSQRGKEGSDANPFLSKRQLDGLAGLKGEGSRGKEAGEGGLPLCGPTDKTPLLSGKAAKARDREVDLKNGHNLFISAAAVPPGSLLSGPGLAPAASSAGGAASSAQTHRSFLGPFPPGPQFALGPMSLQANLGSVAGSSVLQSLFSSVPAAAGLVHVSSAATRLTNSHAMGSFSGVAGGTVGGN
# MOLM-13 = assay: Antiproliferative activity against mixed-lineage leukemia rearranged (MLL-r) human MOLM-13 cells assessed as inhibition of cell growth incubated for 7 days by CCK-8 assay; format: functional, cell-based; settings: time 7.0 day
# [2] = biological target: T1, von Hippel-Lindau disease tumor suppressor/Histone-lysine N-methyltransferase, H3 lysine-79 specific; assay: PROTAC activity at VHL/DOTIL in mixed-lineage leukemia rearranged (MLL-r) human THP-1 cells assessed as induction of DOT1L degradation by measuring fold change in DOTIL protein level at 0.3 uM incubated for 24 hrs by western blot analysis relative to control; format: cell-based
# [3] = biological target: Histone-lysine N-methyltransferase, H3 lysine-79 specific (Homo sapiens) (UniProt Q8TEK3); assay: Inhibition of human DOT1L using oligonucleosomes and SAM as substrate at 1.1 to 3.3 uM by radiometric Hotspot assay; settings: dose 1.1-3.3 µM
# Chain of Histone-lysine N-methyltransferase, H3 lysine-79 specific (Homo sapiens) (Q8TEK3 whole entry, looked up): as above
# MV4-11 = assay: Antiproliferative activity against mixed-lineage leukemia rearranged (MLL-r) human MV4-11 cells assessed as inhibition of cell growth incubated for 7 days by CCK-8 assay; format: functional; settings: time 7.0 day
# [4] = biological target: Histone-lysine N-methyltransferase, H3 lysine-79 specific (Homo sapiens) (UniProt Q8TEK3); assay: Inhibition of human DOT1L using oligonucleosomes and SAM as substrate at 4.6 nM by radiometric Hotspot assay
structure (smiles),measurement,setting,value
"CC(=O)Nc1nc(Nc2cc(S(=O)(=O)NC(C)=O)ccc2N(C(C)=O)[C@@H](c2cccc3c2OC(F)(F)O3)c2ncccc2Cl)nc(OCC(=O)NCCCCCCNC(=O)C[C@H](NC(=O)C2CC(O)CN2C(=O)[C@@H](NC(=O)C2(F)CC2)C(C)(C)C)c2ccc(-c3scnc3C)cc2)n1 (single isomer, unassigned)",fold change (FC),[1],1.11
same,Activity,MOLM-13,inactive
same,fold change (FC),[2],1.1
same,inhibition,[3],> 50%
same,Activity,MV4-11,inactive
Cc1ncsc1-c1ccc(CNC(=O)[C@@H]2C[C@@H](O)CN2C(=O)[C@@H](NC(=O)CCNC(=O)COc2nc(N)nc(Nc3cc(S(N)(=O)=O)ccc3N[C@@H](c3cccc4c3OC(F)(F)O4)c3ncccc3Cl)n2)C(C)(C)C)cc1,fold change (FC),[1],0.95
same,fold change (FC),[2],0.82
Cc1ncsc1-c1ccc([C@H](CC(=O)NCCCCCNC(=O)COc2nc(N)nc(Nc3cc(S(N)(=O)=O)ccc3N[C@@H](c3cccc4c3OC(F)(F)O4)c3ncccc3Cl)n2)NC(=O)[C@@H]2C[C@@H](O)CN2C(=O)[C@@H](NC(=O)C2(F)CC2)C(C)(C)C)cc1,fold change (FC),[1],0.36
same,fold change (FC),[2],0.9
Cc1ncsc1-c1ccc(CNC(=O)[C@@H]2C[C@@H](O)CN2C(=O)[C@@H](NC(=O)CCCCCCCNC(=O)COc2nc(N)nc(Nc3cc(S(N)(=O)=O)ccc3N[C@@H](c3cccc4c3OC(F)(F)O4)c3ncccc3Cl)n2)C(C)(C)C)cc1,fold change (FC),[1],0.83
same,fold change (FC),[2],1.01
Cc1ncsc1-c1ccc([C@H](CC(=O)NCCCCCCCCNC(=O)COc2nc(N)nc(Nc3cc(S(N)(=O)=O)ccc3N[C@@H](c3cccc4c3OC(F)(F)O4)c3ncccc3Cl)n2)NC(=O)[C@@H]2C[C@@H](O)CN2C(=O)[C@@H](NC(=O)C2(F)CC2)C(C)(C)C)cc1,fold change (FC),[1],0.56
same,fold change (FC),[2],0.52
Cc1ncsc1-c1ccc([C@H](CC(=O)NCCCNC(=O)COc2nc(N)nc(Nc3cc(S(N)(=O)=O)ccc3N[C@@H](c3cccc4c3OC(F)(F)O4)c3ncccc3Cl)n2)NC(=O)[C@@H]2C[C@@H](O)CN2C(=O)[C@@H](NC(=O)C2(F)CC2)C(C)(C)C)cc1,fold change (FC),[1],0.28
same,fold change (FC),[2],0.72
Cc1ncsc1-c1ccc(CNC(=O)[C@@H]2C[C@@H](O)CN2C(=O)[C@@H](NC(=O)CCCNC(=O)COc2nc(N)nc(Nc3cc(S(N)(=O)=O)ccc3N[C@@H](c3cccc4c3OC(F)(F)O4)c3ncccc3Cl)n2)C(C)(C)C)cc1,fold change (FC),[1],1.2
same,fold change (FC),[2],0.99
Cc1ncsc1-c1ccc(CNC(=O)[C@@H]2C[C@@H](O)CN2C(=O)[C@@H](NC(=O)CCCCCNC(=O)COc2nc(N)nc(Nc3cc(S(N)(=O)=O)ccc3N[C@@H](c3cccc4c3OC(F)(F)O4)c3ncccc3Cl)n2)C(C)(C)C)cc1,fold change (FC),[1],1.11
same,fold change (FC),[2],1.52
Cc1ncsc1-c1ccc(CNC(=O)[C@@H]2C[C@@H](O)CN2C(=O)[C@@H](NC(=O)CCCCCCNC(=O)COc2nc(N)nc(Nc3cc(S(N)(=O)=O)ccc3N[C@@H](c3cccc4c3OC(F)(F)O4)c3ncccc3Cl)n2)C(C)(C)C)cc1,fold change (FC),[1],1.17
same,fold change (FC),[2],0.99
CC(C)N(C[C@H]1O[C@@H](n2cnc3c(N)ncnc32)[C@H](O)[C@@H]1O)[C@H]1C[C@@H](CCc2nc3cc(C(C)(C)C)ccc3[nH]2)C1,fold change (FC),[1],1.03
same,Activity,MOLM-13,Active; Reduced Potency In Molm-13 Cells Relative To Mv4-11 Cells Observed
same,fold change (FC),[2],1.07
Cc1ncsc1-c1ccc([C@H](CC(=O)NCCCCCCNC(=O)COc2nc(N)nc(Nc3cc(S(N)(=O)=O)ccc3N[C@@H](c3cccc4c3OC(F)(F)O4)c3ncccc3Cl)n2)NC(=O)[C@@H]2C[C@H](O)CN2C(=O)[C@@H](NC(=O)C2(F)CC2)C(C)(C)C)cc1,fold change (FC),[1],1.05
same,Activity,MOLM-13,inactive
same,fold change (FC),[2],0.99
same,inhibition,[4],> 95%
same,Activity,MV4-11,Active
Cc1ncsc1-c1ccc([C@H](CC(=O)NCCCCCCCNC(=O)COc2nc(N)nc(Nc3cc(S(N)(=O)=O)ccc3N[C@@H](c3cccc4c3OC(F)(F)O4)c3ncccc3Cl)n2)NC(=O)[C@@H]2C[C@@H](O)CN2C(=O)[C@@H](NC(=O)C2(F)CC2)C(C)(C)C)cc1,fold change (FC),[1],0.33
same,fold change (FC),[2],0.36
COc1nc(N)nc(Nc2cc(S(N)(=O)=O)ccc2N[C@@H](c2cccc3c2OC(F)(F)O3)c2ncccc2Cl)n1,fold change (FC),[1],1.57
same,Activity,MOLM-13,Active; Reduced Potency In Molm-13 Cells Relative To Mv4-11 Cells Observed
same,fold change (FC),[2],1.29
Cc1ncsc1-c1ccc(CNC(=O)[C@@H]2C[C@@H](O)CN2C(=O)[C@@H](NC(=O)CCCCNC(=O)COc2nc(N)nc(Nc3cc(S(N)(=O)=O)ccc3N[C@@H](c3cccc4c3OC(F)(F)O4)c3ncccc3Cl)n2)C(C)(C)C)cc1,fold change (FC),[1],1.17
same,fold change (FC),[2],0.99
Cc1ncsc1-c1ccc([C@H](CC(=O)NCCNC(=O)COc2nc(N)nc(Nc3cc(S(N)(=O)=O)ccc3N[C@@H](c3cccc4c3OC(F)(F)O4)c3ncccc3Cl)n2)NC(=O)[C@@H]2C[C@@H](O)CN2C(=O)[C@@H](NC(=O)C2(F)CC2)C(C)(C)C)cc1,fold change (FC),[1],0.55
same,fold change (FC),[2],0.83
Cc1ncsc1-c1ccc([C@H](CC(=O)NCCCCNC(=O)COc2nc(N)nc(Nc3cc(S(N)(=O)=O)ccc3N[C@@H](c3cccc4c3OC(F)(F)O4)c3ncccc3Cl)n2)NC(=O)[C@@H]2C[C@@H](O)CN2C(=O)[C@@H](NC(=O)C2(F)CC2)C(C)(C)C)cc1,fold change (FC),[1],0.6
same,fold change (FC),[2],0.58
